Source: patent US12158464B2, “Methods for modeling disease tissue using three-dimensional tissue systems” (priority 2013, dated 2024)
Entries after “also recorded” stand apart in the source; their conditions may differ.

Assays:
[1] = system: hESC-CM biowires (Hes2); assay type: cell-based, human
Experimental: After preculture for 7 days, biowires were randomly transferred to 6-well plates and cultured in StemPro-34 media in the absence or presence of Isoproterenol (100 nM), Angiotensin II (200 nM [17]) or Endothelin-1 (150 nM)(Sigma) for 7 days. This protocol was chosen to replicate the chronic treatment of mice as described. […] Isolated single cells were seeded on Matrigel-coated glass cover slips before cell area and calcium transient measurements were performed. Immunostaining and Fluorescence Microscopy. Immunostaining was performed using the following antibodies: mouse anti-cTNT (1:100, Thermo Scientific; MS-295-P1), mouse anti-α-actinin (1:200, Abcam, ab9465), anti-mouse-Alexa Fluor 488 (1:400, Invitrogen, A21202), anti-rabbit-TRITC (1:400, Invitrogen, 81-6114). DAPI was used to counterstain nuclei. Phalloidin Alexa Fluor 660 (1:1000, Invitrogen, A22285) was used to detect actin fibers. The stained cells were visualized using a fluorescence microscope (Leica CTR6000) and images captured using the Leica Application Suite software. For confocal microscopy cells were visualized using a fluorescence confocal microscope (Zeiss LSM-510). Transmission Electron Microscopy (TEM). Tissue was fixed with 4% Paraformaldehyde, 1% Glutaraldehyde in 0.1 M PBS for at least 1 hr and washed 3 times with PBS pH 7.2. Post-fixation was done with 1% Osmium Tetraoxide in 0.1 M PBS, pH 7.2 for 1 hr and dehydrated using ethanol series from 25 to 100%. Tissue was infiltrated using Epon resin and polymerized in plastic dishes at 40° C. for 48 hr. Tissue was stained with Uranyl Acetate and Lead Citrate after sectioning. Imaging was performed at Hitachi H-7000 transmission electron microscope.

[2] = system: human cardiac tissue strands (hESC, Hes2 derived cardiomyocytes); experiment: Biorod drug testing: tissue beating pattern and contractile force by polymer wire deflection; assay type: cell-based
Experimental: Cardiomyocytes were derived from human embryonic stem cell lines (hESC, Hes2). Embryoid bodies (EBs) were differentiated to the cardiovascular lineage and disassociated as previously described in Device 1 Methods. Before cell seeding, micro-well surface was rinsed with 5% (w/v) Pluronic Acid (Sigma P2443) and then air dried in the bio-safety cabinet. hESC derived cardiomyocytes were suspended at 200 million/ml (unless specified otherwise) in Collagen Type I based gel (3.0 mg/ml of rat tail collagen type I (BD Biosciences) neutralized by 1N NaOH and 10×M199 media as described by the manufacturer) with the supplements of […], 1% (v/v) HEPES, 10% (v/v) Matrigel (BD Biosciences), and […]. Suspended cardiomyocytes were then seeded into the cell culture channel (2.5 μl per well). After 30 min incubation at 37° C. to induce the gelation, appropriate media were added. After seeding, cells were kept in culture for 7 days to allow collagen matrix remodeling and assembly around the wires. Cardiac tissue strands were kept in culture for up to 21 days with media change every 2-3 days. Preferably, the tissue strands should be kept in culture for at least 2 weeks to allow for maturation; however there is no limitation on the maximum culture duration. Cardiac tissue strands were seeded to observe the stability and reproducibility of tissue in long term culture. After seeding, brightfield images (see FIG. 39A for an example) of the tissue strands were taken every day (n=3 per group) using optical microscope (Olympus CKX41) and the diameters of the tissue strands at four distinct locations were analyzed with imageJ (see FIG. 39B for an example). Tissue strand lengths were also analyzed with same method.
Tissue contractile behavior tracing and measurement was carried out. POMac is auto-fluorescent at a wide range of wavelenths; therefore the wires were imaged with a fluorescence microscope under DAPI channel (e.g. 461 nm wavelength) to trace the bending movements of the wires. The POMac is auto-fluorescent at a wide range of wavelengths, including under FITC and Tritc channels. Images were taken at 25 frames per second (fps) (see FIG. 39C). Image sequences were analyzed with ImageJ software using tracking plugin. To calculate the forces originated from cardiac tissues, beam deflection formula with uniformly distributed load in the middle section was used here. […] The engineered cardiac tissues were paced at 2 Hz frequency. From this image sequence, contraction and relaxation time of beating can be estimated. […] Tissue stretching wires can be considered uniformly distributed Load, Wo (Load per force bearing length), which can be calculated with displacement of center point of wires in image sequence, and F can be calculated as well. […] Briefly, entire beam length was L. Section of wire with tissue wrapping around it was experiencing load. Here, the load was assumed to be evenly distributed throughout this section, and Wo was load per length. […] The distance between side of the tissue and a well wall is a, which was assumed equal for both sides. The deflection at center point was y.
Drug testing was carried out.

[3] = system: hESC-derived CMs 3D tissues; assay type: cell-based, human
Experimental: Alternatively, to measure the force generated by the 3D engineered cardiac tissues, a bioreactor consisting of a PDMS tissue chamber capable of housing 8 micotissues was employed. […] Briefly, each well of the PDMS chamber had two posts which served as anchoring points for each cardiac tissue during gel compaction. Furthermore, by tracking a post's deflection, the force of contraction a cardiac tissue generated was determined. Cardiac tissues underwent 7 days of pre-culture followed by 7 days of treatment with endothelin-1, angiotensin II or isoproterenol. After the treatment, the contractile force of each cardiac tissue was determined by video recording, one at a time, the top surface of a post for each cardiac tissue while being paced at 0.5 or 1 Hz using CellSens software (Olympus). Each video was then exported as a series of Tiff images and opened in ImageJ. […] Using the method of superposition for a cantilever beam-partial uniform deflection, a point force was calculated and then normalized to the tissues cross sectional area (assumed circular) to determine the cardiac force per area.

[4] = system: Hes2 hESC derived cardiomyocytes; assay type: cell-based, human; conditions: single cells dissociated at end of 7 days treatment, cardiac troponin T staining
Experimental: (§1) After preculture for 7 days, biowires were randomly transferred to 6-well plates and cultured in StemPro-34 media in the absence or presence of Isoproterenol (100 nM), Angiotensin II (200 nM [17]) or Endothelin-1 (150 nM)(Sigma) for 7 days. This protocol was chosen to replicate the chronic treatment of mice as described. […] Isolated single cells were seeded on Matrigel-coated glass cover slips before cell area and calcium transient measurements were performed.

[5] = system: hESC-CM biowires (Hes2); experiment: Chronic drug exposure: ELISA of soluble BNP in conditioned media; assay type: cell-based, human
Experimental: as §1, with “performed. ELISA. Quantification of soluble BNP from the conditioned media was performed using commercially available ELISA kits.” for “performed.”

[6] = system: hESC-CM biowires (Hes2); experiment: Chronic drug exposure: conduction velocity by optical mapping upon point stimulation; assay type: cell-based, human; conditions: point stimulation at the end of cultivation, vs non-treated controls
Experimental: Optical Mapping. […] Imaging was performed at 200 frames/s. […] Data analysis was performed using BrainVision software (Scimedia).

[7] = system: hESC-derived CMs 3D tissues; experiment: Chronic drug exposure: cell viability in 3D tissues by live/dead staining; assay type: cell-based, human; conditions: vs non-treated controls
[8] = system: hESC-CM biowires (Hes2); experiment: Chronic drug exposure of biowires: quantitative RT-PCR of fetal gene program; assay type: cell-based, human; conditions: 7 days treatment: ISO 100 nM, Et-1 150 nM, AngII 200 nM, vs untreated control
Experimental: as §1
Quantitative RT-PCR. RT-PCR was performed as previously described. Total RNA was prepared with the High Pure RNA Isolation Kit (Roche) and treated with RNase-free DNase (Roche). RNA was reverse transcribed into cDNA using random hexamers and Oligo (dT) with SuperScript VILO (Invitrogen). RT-qPCR was performed on a LightCycler 480 (Roche) using LightCycler 480 SYBR Green I Master (Roche). Expression levels were normalized to the housekeeping genes TATA box binding protein (TBP) or Glyceraldehyde 3-phosphate dehydrogenase (GAPDH).

[9] = system: hESC-derived cardiomyocyte tissue strands; experiment: NO treatment of perfusable human cardiac tissue strands, beating activity by image analysis; assay type: cell-based; conditions: 24 hr NO treatment by perfusion of 200 mM SNP
Experimental: (§2) NO treatment of human cardiac tissue strands was carried out. On day 7, the NO treatment of human cardiac tissue strand was initiated by perfusing the 200 mM SNP solution and the peristaltic pump was stopped once the SNP solution was perfused through the tubing. The beating activities of the human cardiac tissue strands were recorded at 16.67 frames/second before treatment and 24 hr post-treatment by Olympus IX81 while the tissue strands were kept at 37° C. The beating activities of the human cardiac tissue strands were quantified by the image analysis method described by Sage et al^28. In brief, the movements of one spot at the same location on the human cardiac tissue strand before and after the NO treatment were characterized.

[10] = system: hESC-derived cardiomyocyte tissue strands; experiment: α-actinin immunostaining and confocal microscopy of NO-treated tissue strands; assay type: cell-based, human; conditions: NO treatment by perfusion, vs control tissue strands
Experimental: Tissue strands were fixed with 4% parafornaldehyde, permeablized by 0.25% Triton X-100, and blocked by 10% bovine serum albumin (BSA). Immunostaining was performed using the following antibodies: mouse anti-cardiac Troponin T (cTnT) (Abcam; 1:100), mouse anti-α-actinin (Abcam; 1:200) and anti-rabbit-TRITC (Invitrogen; 1:200), anti-mouse-TRITC (Jackson Immuno Research; 1:200). Nuclei were counterstained with 4′,6-diamidino-2-phenylindole (DAPI) (Biotium; 1:100). Phalloidin-Alexa 660 (Introgen; 1:600) was used to stain F-actin fibers. For confocal microscopy, the stained cardiac tissue strands were visualized under an inverted confocal microscope (Olympus IX81) or an upright confocal microscope (Zeiss LSM 510).
as §2, with “In brief, the movements of one spot at the same location on the human cardiac tissue strand before and after the NO treatment were characterized.” left out

Row | SMILES | contractile apparatus (transmission electron microscopy) [1] | tissue contractile forces normalized to forces before drug addition ([2]; 100 nM) | tissue contractile forces normalized to forces before drug addition ([2]; 1 μM) | tissue contractile forces normalized to forces before drug addition ([2]; 10 μM) | response of human cardiac tissues to well-known drugs ([2]; summary statement) | force of contraction [3] | increase in cell size [4] | BNP in the conditioned media ([5]; chronic treatment) | increase in the secretion of BNP ([5]; day 2 post-treatment, media conditioned for 48 h) | increase of BNP in the media ([5]; day 7, media conditioned for 24 h) | conduction velocity [6] | cell viability (live/dead staining) [7] | ANF and BNP gene expression (fetal gene program) [8] | ANF and BNP gene expression (fetal gene program) ([8]; listed as Isoproterenol) | spontaneous beating of human cardiac tissue strands ([9]; vs basal level) | beating frequency after NO treatment normalized to the basal level ([9]; n=3) | α-actinin structure (cytoskeleton) of cardiomyocytes [10]
1 | CC(C)NCC(O)c1ccc(O)c(O)c1 (centres unmarked) [ISO, Isoproterenol] | significant absence of distinct Z-disks and the lack of a defined sarcomere structure | positive inotropic action | positive inotropic action | slight negative inotropic effect | responded appropriately | significantly reduced force of contraction | 35% | BNP can also be found in the conditioned media | 2.5 fold | 70% | the same | no differences | significantly induced | induction of brain natriuretic peptide (BNP) and atrial natriuretic factor (ANF) gene expression | – | – | –
2 | [N]=O [NO, nitric oxide] | – | – | – | – | – | – | – | – | – | – | – | – | – | – | significantly slowed down the beating | 74±3% | disrupted α-actinin structure; also recorded: overall punctate pattern
